Reference: patent US7951815B2, “Substituted 1,4,8-triazaspiro [4,5]decan-2-one compounds” (Gruenenthal GmbH, priority 2004, dated 2011)
Where two headings read alike, the source gives them in different places.

What was measured:
5-HT transporter = biological target: T1, 5-HT transporter (Rattus norvegicus, UniProt P31652); experiment: Inhibition of 5-HT uptake in rat brain synaptosomes; type: biochemical; conditions: read-out: Uptake 5-HT, % inhibition, rat, 1 μM
T1 construct: synaptosomes of rat brain areas are freshly isolated; from tissue; host or cells: rat brain synaptosomes (P2 fraction) from marrow and pons
T1 sequence (P31652 whole entry): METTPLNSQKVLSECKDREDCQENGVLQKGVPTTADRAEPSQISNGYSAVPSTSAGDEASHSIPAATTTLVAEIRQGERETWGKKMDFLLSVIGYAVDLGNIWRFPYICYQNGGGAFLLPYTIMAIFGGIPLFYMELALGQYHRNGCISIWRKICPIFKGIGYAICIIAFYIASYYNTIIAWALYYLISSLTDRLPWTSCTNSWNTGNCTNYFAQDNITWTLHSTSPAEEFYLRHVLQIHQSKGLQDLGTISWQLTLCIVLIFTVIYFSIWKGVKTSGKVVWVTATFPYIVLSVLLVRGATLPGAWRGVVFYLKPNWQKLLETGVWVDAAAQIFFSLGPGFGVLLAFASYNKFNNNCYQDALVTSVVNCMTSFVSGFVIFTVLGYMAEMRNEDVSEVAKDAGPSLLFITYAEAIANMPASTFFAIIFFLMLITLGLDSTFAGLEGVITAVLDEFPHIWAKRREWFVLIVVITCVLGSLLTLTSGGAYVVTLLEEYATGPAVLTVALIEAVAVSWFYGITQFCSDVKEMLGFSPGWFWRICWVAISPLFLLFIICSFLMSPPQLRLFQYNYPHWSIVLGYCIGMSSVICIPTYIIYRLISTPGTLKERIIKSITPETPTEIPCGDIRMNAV

[1] = system: batrachotoxin (BTX) binding site of the sodium channel; experiment: Affinity to the batrachotoxin (BTX) binding site of the sodium channel; conditions: rat cerebrocortex synaptosomes, test concentration not given

Structure (SMILES) | BTX inhibition ([1]; Table III) | further results
COC(=O)c1ccc(CN2C(=O)CNC23CCN(C(=O)c2ccc(C(C)(C)C)cc2)CC3)cc1 [Example 305, Methyl 4-[8-(4-tert-Butylbenzoyl)-2-oxo-1,4,8-triazaspiro[4,5]dec-1-ylmethyl]benzoate] | 51 | inhibition at 1 µM (5-HT transporter; Table III): 37%
CCCCC(=O)N1CCC2(CC1)NC(Cc1ccccc1)C(=O)N2CC(=O)OCC (centres unmarked) [Example 299, Ethyl (3-benzyl-2-oxo-8-pentanoyl-1,4,8-triazaspiro[4,5]dec-1-yl)acetate] | 36 | inhibition at 1 µM (5-HT transporter; Table III): 66%
Cc1ccc(C(=O)N2CCC3(CC2)NC(CC(C)C)C(=O)N3Cc2c(Cl)cccc2Cl)c(F)c1F (centres unmarked) [Example 324, 1-(2,6-Dichlorobenzyl)-8-(2,3-difluoro-4-methylbenzoyl)-3-isobutyl-1,4,8-triazaspiro[4,5]decan-2-one] | 62 | inhibition at 1 µM (5-HT transporter; Table III): 31%
CC(C)CC1NC2(CCN(C(=O)c3ccc(Cl)nc3)CC2)N(Cc2c(Cl)cccc2Cl)C1=O (centres unmarked) [Example 279, 8-(6-Chloropyridin-3-carbonyl)-1-(2,6-dichlorobenzyl)-3-isobutyl-1,4,8-triazaspiro[4,5]decan-2-one] | 60 | inhibition at 1 µM (5-HT transporter; Table III): 48%
Cl.O=C1[C@H](Cc2ccccc2)NC2(CCNCC2)N1Cc1ccccc1 [Example 38, 1,3-(S)-Dibenzyl-1,4,8-triazaspiro[4,5]decan-2-one hydrochloride] |  | inhibition at 1 µM (5-HT transporter; Table II): 94%; BTX inhibition ([1]; Table II): 87
Cl.O=C(c1ccc2ccccc2c1)N1CCC2(CC1)N[C@@H](Cc1ccccc1)C(=O)N2Cc1ccccc1 [Example 59, 1,3-(S)-dibenzyl-8-(naphthalin-2-carbonyl)-1,4,8-triazaspiro[4,5]decan-2-one hydrochloride] |  | inhibition at 1 µM (5-HT transporter; Table II): 53%; BTX inhibition ([1]; Table II): 49
C=CCN1C(=O)C(CCSC)NC12CCN(C(=O)c1c(F)c(F)c(F)c(F)c1F)CC2 (centres unmarked) [Example 302, 1-Allyl-3-(2-methylsulfanylethyl)-8-pentafluorobenzoyl-1,4,8-triazaspiro[4,5]decan-2-one] | 39 | 
CCCCN1C(=O)C(C(C)C)NC12CCN(C(=O)CC1CCCC1)CC2 (centres unmarked) [Example 201, 1-Butyl-8-(2-cyclopentylacetyl)-3-isopropyl-1,4,8-triazaspiro[4,5]decan-2-one] | 42 | 
CSCCC1NC2(CCN(C(=O)C=Cc3cccc(C(F)(F)F)c3)CC2)N(C)C1=O (centres unmarked) [Example 208, 1-Methyl-3-(2-methylsulfanylethyl)-8-[3-(3-trifluoromethylphenyl)acryloyl]-1,4,8-triazaspiro[4,5]decan-2-one] | 33 | 
CCOc1ccc(C(=O)N2CCC3(CC2)NC(Cc2ccccc2)C(=O)N3C)cc1 (centres unmarked) [Example 135, 3-Benzyl-8-(4-ethoxybenzoyl)-1-methyl-1,4,8-triazaspiro[4,5]decan-2-one] | 31 | 
COc1cccc(C(=O)N2CCC3(CC2)N[C@@H](Cc2ccccc2)C(=O)N3Cc2ccccc2)c1.Cl [Example 61, 1,3-(S)-dibenzyl-8-(3-methoxybenzoyl)-1,4,8-triazaspiro[4,5]decan-2-one hydrochloride] |  | BTX inhibition ([1]; Table II): 41
CN1C(=O)C(Cc2ccccc2)NC12CCN(C(=O)C1COc3ccc(Cl)cc3C1)CC2 (centres unmarked) [Example 242, 3-Benzyl-8-(6-chloro-2H-chroman-3-carbonyl)-1-methyl-1,4,8-triazaspiro[4,5]decan-2-one] | 42 | 
O=C(c1ccccc1C(F)(F)F)N1CCC2(CC1)NCC(=O)N2Cc1ccccc1F [Example 303, 1-(2-Fluorobenzyl)-8-(2-trifluoromethylbenzoyl)-1,4,8-triazaspiro[4,5]decan-2-one] | 30 | 
COC(=O)c1ccc(CN2C(=O)C(C(C)C)NC23CCN(C(=O)CC(C)(C)C)CC3)cc1 (centres unmarked) [Example 198, Methyl 4-[8-(3,3-dimethylbutyryl)-3-isopropyl-2-oxo-1,4,8-triazaspiro[4,5]dec-1-ylmethyl]benzoate] | 30 | 
CC(C)CC1NC2(CCN(C(=O)c3ccc(C(F)(F)F)c(F)c3)CC2)N(Cc2ccccc2)C1=O (centres unmarked) [Example 241, 1-Benzyl-8-(3-fluoro-4-trifluoromethylbenzoyl)-3-isobutyl-1,4,8-triazaspiro[4,5]decan-2-one] | 58 | 
CCOc1ccc(C(=O)N2CCC3(CC2)NC(CC(C)C)C(=O)N3Cc2ccccc2)cc1 (centres unmarked) [Example 179, 1-Benzyl-8-(4-ethoxybenzoyl)-3-isobutyl-1,4,8-triazaspiro[4,5]decan-2-one] | 46 | 
Cl.O=C(c1ccc(Cl)cc1)N1CCC2(CC1)N[C@@H](Cc1ccccc1)C(=O)N2Cc1ccc(F)cc1 (racemic) [Example 28, 3-(S,R)-benzyl-8-(4-chlorobenzoyl)-1-(4-fluorobenzyl)-1,4,8-triazaspiro[4,5]decan-2-one hydrochloride] |  | BTX inhibition ([1]; Table II): 47
Cc1onc(-c2c(F)cccc2Cl)c1C(=O)N1CCC2(CC1)NC(C(C)C)C(=O)N2CCOc1ccccc1 (centres unmarked) [Example 131, 8-[3-(2-Chloro-6-fluorophenyl)-5-methylisoxazole-4-carbonyl]-3-isopropyl-1-(2-phenoxyethyl)-1,4,8-triazaspiro[4,5]decan-2-one] | 37 | 

Structure (SMILES) | BTX inhibition ([1]; Table III) | further results
C=CCCC(=O)N1CCC2(CC1)NC(C(C)C)C(=O)N2CC=C (centres unmarked) [Example 307, 1-Allyl-3-isopropyl-8-pent-4-enoyl-1,4,8-triazaspiro[4,5]decan-2-one] | 31 | 
C#CCN1C(=O)C(CCSC)NC12CCN(C(=O)c1ccc(-c3ccccc3)cc1)CC2 (centres unmarked) [Example 213, 8-(Biphenyl-4-carbonyl)-3-(2-methylsulfanylethyl)-1-prop-2-ynyl-1,4,8-triazaspiro[4,5]decan-2-one] | 43 | 
Cc1oc(C(C)(C)C)cc1C(=O)N1CCC2(CC1)NC(C(C)C)C(=O)N2CCOc1ccccc1 (centres unmarked) [Example 196, 8-(5-tert-Butyl-2-methylfuran-3-carbonyl)-3-isopropyl-1-(2-phenoxyethyl)-1,4,8-triazaspiro[4,5]decan-2-one] | 52 | 
CC(C)C1NC2(CCN(C(=O)COc3cccc(Cl)c3)CC2)N(CCOc2ccccc2)C1=O (centres unmarked) [Example 165, 8-[2-(3-Chlorophenoxy)acetyl]-3-isopropyl-1-(2-phenoxyethyl)-1,4,8-triazaspiro[4,5]decan-2-one] | 63 | 
Cl.O=C(C(c1ccccc1)c1ccccc1)N1CCC2(CC1)N[C@@H](Cc1ccccc1)C(=O)N2Cc1ccccc1 [Example 56, 1,3-(S)-dibenzyl-8-diphenylacetyl-1,4,8-triazaspiro[4,5]decan-2-one hydrochloride] |  | BTX inhibition ([1]; Table II): 67
O=C(c1ccnc(Cl)c1)N1CCC2(CC1)NCC(=O)N2Cc1ccccc1F [Example 300, 8-(2-Chloropyridin-4-carbonyl)-1-(2-fluorobenzyl)-1,4,8-triazaspiro[4,5]decan-2-one] | 33 | 
CC(C)CC1NC2(CCN(C(=O)CCC3CCCC3)CC2)N(Cc2ccccc2F)C1=O (centres unmarked) [Example 220, 8-(3-Cyclopentylpropionyl)-1-(2-fluorobenzyl)-3-isobutyl-1,4,8-triazaspiro[4,5]decan-2-one] | 62 | 
CCCCC(=O)N1CCC2(CC1)NC(CCSC)C(=O)N2Cc1cc(C)cc(C)c1 (centres unmarked) [Example 189, 1-(3,5-Dimethylbenzyl)-3-(2-methylsulfanylethyl)-8-pentanoyl-1,4,8-triazaspiro[4,5]decan-2-one] | 40 | 
Cc1cccc(C(=O)N2CCC3(CC2)NC(CC(C)C)C(=O)N3Cc2ccccc2F)c1 (centres unmarked) [Example 132, 1-(2-Fluorobenzyl)-3-isobutyl-8-(3-methylbenzoyl)-1,4,8-triazaspiro[4,5]decan-2-one] | 54 | 
CSCCC1NC2(CCN(C(=O)c3c(-c4c(F)cccc4Cl)noc3C)CC2)N(Cc2cccc(C#N)c2)C1=O (centres unmarked) [Example 181, 3-[8-[3-(2-Chloro-6-fluorophenyl)-5-methylisoxazole-4-carbonyl]-3-(2-methylsulfanylethyl)-2-oxo-1,4,8-triazaspiro[4,5]dec-1-ylmethyl]benzonitrile] | 43 | 
CN1C(=O)C(Cc2ccccc2)NC12CCN(C(=O)COc1ccccc1)CC2 (centres unmarked) [Example 184, 3-Benzyl-1-methyl-8-(2-phenoxyacetyl)-1,4,8-triazaspiro[4,5]decan-2-one] | 62 | 
O=C(c1ccc(-c2ccccc2)cc1)N1CCC2(CC1)NCC(=O)N2Cc1ccccc1 [Example 72, 1-Benzyl-8-(biphenyl-4-carbonyl)-1,4,8-triazaspiro[4,5]decan-2-one] | 39 | 
CC(C)CC1NC2(CCN(C(=O)c3cc(C(F)(F)F)ccc3Cl)CC2)N(Cc2c(Cl)cccc2Cl)C1=O (centres unmarked) [Example 326, 8-(2-Chloro-5-trifluoromethylbenzoyl)-1-(2,6-dichlorobenzyl)-3-isobutyl-1,4,8-triazaspiro[4,5]decan-2-one] | 68 | 
O=C(c1ccc(F)c(F)c1)N1CCC2(CC1)NCC(=O)N2CCOc1ccccc1 [Example 142, 8-(3,4-Difluorobenzoyl)-1-(2-phenoxyethyl)-1,4,8-triazaspiro[4,5]decan-2-one] | 32 | 
CSCCC1NC2(CCN(C(=O)c3c(-c4ccccc4Cl)noc3C)CC2)N(Cc2cc(C)cc(C)c2)C1=O (centres unmarked) [Example 169, 8-[3-(2-Chlorophenyl)-5-methylisoxazole-4-carbonyl]-1-(3,5-dimethylbenzyl)-3-(2-methylsulfanylethyl)-1,4,8-triazaspiro[4,5]decan-2-one] | 51 | 
CCOC(=O)CN1C(=O)C(CCSC)NC12CCN(C(=O)c1ccc(C(F)(F)F)cc1)CC2 (centres unmarked) [Example 322, Ethyl [3-(2-methylsulfanylethyl)-2-oxo-8-(4-trifluoromethylbenzoyl)-1,4,8-triazaspiro[4,5]dec-1-yl]acetate] | 36 | 
CC(C)C1NC2(CCN(C(=O)c3cccc(Cl)c3F)CC2)N(Cc2ccccc2C#N)C1=O (centres unmarked) [Example 247, 2-[8-(3-Chloro-2-fluorobenzoyl)-3-isopropyl-2-oxo-1,4,8-triazaspiro[4,5]dec-1-ylmethyl]benzonitrile] | 32 | 
